Measurements published in PubChem BioAssay (NCI).
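Assay format: 96-well plates, 48-hour exposure. GI50: concentration for 50% inhibition of growth. TGI denotes the concentration required for complete inhibition of growth.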

Columns and labels:
Assay in all cases: NCI anticancer screen, dose series, 48 h
A498 renal = tested on: A498 renal
A549 NSCLC = tested on: A549 NSCLC
HCT-116 colon = tested on: HCT-116 colon
LOX IMVI melanoma = tested on: LOX IMVI melanoma
OVCAR-4 ovarian = tested on: OVCAR-4 ovarian
RPMI-8226 leukemia = tested on: RPMI-8226 leukemia
SK-OV-3 ovarian = tested on: SK-OV-3 ovarian
SN12C renal = tested on: SN12C renal

SMILES	TGI (A498 renal)	TGI (A549 NSCLC)	TGI (HCT-116 colon)	TGI (LOX IMVI melanoma)	TGI (OVCAR-4 ovarian)	TGI (RPMI-8226 leukemia)	TGI (SK-OV-3 ovarian)	TGI (SN12C renal)	GI50 (A498 renal)	GI50 (A549 NSCLC)	GI50 (HCT-116 colon)	GI50 (LOX IMVI melanoma)	GI50 (OVCAR-4 ovarian)	GI50 (RPMI-8226 leukemia)	GI50 (SK-OV-3 ovarian)	GI50 (SN12C renal)
COC1[C@H](NC(=O)OC(C)(C)C)C(=O)N1Cc1ccccc1 (stereo partly drawn)	> 100 µM	> 100 µM	> 100 µM	> 100 µM	> 100 µM	> 100 µM	> 100 µM	> 100 µM	–	–	–	–	–	–	–	–
Cc1cc(=O)n(-c2c(C)cccc2Cl)c(/C=C(\O)c2ccncc2)n1	> 100 µM	> 100 µM	> 100 µM	> 100 µM	> 100 µM	–	> 100 µM	> 100 µM	–	–	–	–	–	–	–	–
CN(C)C(=O)NC(=S)N(C)C	> 100 µM	> 100 µM	> 100 µM	–	> 100 µM	> 100 µM	> 100 µM	> 100 µM	–	–	–	–	–	–	–	–
CCCCCCCCCCSC(=O)NC	> 100 µM	> 100 µM	–	> 100 µM	> 100 µM	48.8 µM	> 100 µM	74.4 µM	–	–	–	–	–	–	–	–
Clc1ccc(OCc2nnc3n2N=C(c2ccc(Br)cc2)CS3)cc1	25.7 µM	> 100 µM	> 100 µM	46 µM	–	> 100 µM	34.6 µM	> 100 µM	–	–	–	–	–	–	–	–
O=C(N/C(=C\c1ccccc1Cl)c1nc2ccccc2[nH]1)c1ccccc1	–	> 100 µM	–	–	> 100 µM	–	> 100 µM	61.5 µM	–	–	–	–	–	–	–	–
CN(C)CCn1cnc2ncccc2c1=O	–	> 100 µM	> 100 µM	> 100 µM	> 100 µM	–	> 100 µM	> 100 µM	–	–	–	–	–	–	–	–
CCOC(=O)C(NO)C(Sc1ccccc1)c1ccc(OC)cc1 (stereo not drawn)	–	> 100 µM	> 100 µM	> 100 µM	–	> 100 µM	> 100 µM	> 100 µM	–	–	–	–	–	–	–	–
COC(=O)C1C(=O)O[C@@H](c2ccc(OC)c(OC)c2OC)C1C(=O)OC (mixture of isomers)	> 100 µM	> 100 µM	> 100 µM	> 100 µM	> 100 µM	> 100 µM	> 100 µM	> 100 µM	–	–	–	–	–	–	–	–
CC1CCC(=O)C(C(O)CC2CC(=O)N(c3ccccc3)C(=O)C2)C1 (stereo not drawn)	> 100 µM	> 100 µM	> 100 µM	> 100 µM	> 100 µM	> 100 µM	> 100 µM	> 100 µM	–	–	–	–	–	–	–	–
CN(NC1OC(CO)C(O)C(O)C1O)c1ccccc1 (stereo not drawn)	–	> 100 µM	> 100 µM	> 100 µM	> 100 µM	> 100 µM	–	–	–	–	–	–	–	–	–	–
COc1cc(-c2ccc(NC(=O)SCCC(=O)O)cc2OC)ccc1NC(=O)SCCC(=O)O	> 100 µM	> 100 µM	> 100 µM	> 100 µM	> 100 µM	> 100 µM	–	> 100 µM	–	–	–	–	–	–	–	–
O=C1C2c3[nH]c4ccccc4c3C3CCCCCC3C2C(=O)N1c1ccccc1 (stereo not drawn)	> 57.1 µM	> 67.5 µM	62.7 µM	> 49.9 µM	> 24.5 µM	> 100 µM	34.1 µM	> 36.5 µM	–	–	–	–	–	–	–	–
CC(=O)[CH-]C(=O)c1ccccc1.CC(=O)[CH-]C(=O)c1ccccc1.CC(C)CCC[C@H](C)C1CCC2[C@@H]3CC=C4C[C@@H]([O-])CC[C@]4(C)C3CC[C@@]21C.CC(C)CCC[C@H](C)C1CCC2[C@@H]3CC=C4C[C@@H]([O-])CC[C@]4(C)C3CC[C@@]21C.Cl.[Ti+4] (stereo partly drawn)	> 25 µM	> 25 µM	> 25 µM	> 25 µM	> 25 µM	> 25 µM	> 25 µM	> 25 µM	> 25 µM	> 25 µM	> 25 µM	> 25 µM	> 25 µM	> 25 µM	> 25 µM	> 25 µM
O=C(CO[N+](=O)[O-])OC/C=C/c1ccccc1	–	> 100 µM	> 100 µM	> 100 µM	–	> 100 µM	> 100 µM	> 100 µM	–	–	–	–	–	–	–	–
CC(=O)Nc1ccc(/C=C2\N=C(c3ccccc3)OC2=O)cc1	–	> 100 µM	> 100 µM	> 100 µM	> 100 µM	> 100 µM	> 100 µM	> 100 µM	–	–	–	–	–	–	–	–
COC1OC(CBr)C(OC(=O)c2ccccc2)C(OS(=O)(=O)c2ccc(C)cc2)C1Br (stereo not drawn)	> 100 µM	> 100 µM	> 100 µM	> 100 µM	> 100 µM	> 100 µM	–	> 100 µM	–	–	–	–	–	–	–	–
COc1cc(/C=C/c2ccc(Br)cc2)cc(OC)c1OC	> 56.6 µM	> 100 µM	17.1 µM	> 100 µM	87.1 µM	20.8 µM	> 89.9 µM	71.8 µM	–	–	–	–	–	–	–	–
COc1ccc(-c2ccccc2)c2[nH]c3c(c12)CCNC3=O	> 100 µM	> 100 µM	> 100 µM	> 100 µM	> 100 µM	> 100 µM	–	> 100 µM	–	–	–	–	–	–	–	–
COc1ccc(S(=O)(=O)N[C@H](C(=O)O)c2ccccc2)cc1	–	> 100 µM	> 100 µM	> 100 µM	> 100 µM	> 100 µM	> 100 µM	> 100 µM	–	–	–	–	–	–	–	–
CCOc1ccc(OCC)c([P+](c2ccccc2)(c2ccccc2)c2ccccc2)c1	4.42 µM	11.6 µM	11.8 µM	3.1 µM	29 µM	2.36 µM	–	5.61 µM	–	–	–	–	–	–	–	–
